According to PMC4774911, “Biochemical Screening of Five Protein Kinases from Plasmodium falciparum against 14,000 Cell-Active Compounds” (PLoS ONE, 2016):
Like-named read-outs stand apart in the source and are kept apart here.

Legend:
[1] = system: Plasmodium falciparum mitogen-associated protein kinase 2 (MAPK2/MAP2); experiment: MAPK2 Kinase-Glo ATP-consumption screen; format: biochemical; conditions: concentrations of 10–30 μM
Procedure: Biochemical assays were performed in white 384-well plates (Nunc). Liquid transfers were done manually with 8-channel pipets. Compounds were initially tested in a single-point screen (final concentration 1 μM). […] The catalytic activity of each kinase was considered proportional to ATP consumed, as determined from measurements of residual [ATP] with the luciferase-based reagent Kinase-Glo (Promega) following incubation. Luminescence (proportional to residual [ATP]) was measured on the plate readers FLx800 (BioTek Instruments, Winooski, VT, USA) and MicroBeta^2 (PerkinElmer, Waltham, MA, USA). Incubation times were chosen to ensure near-complete ATP depletion in the absence of inhibition, thus maximizing the difference in signal between inhibited and uninhibited wells.
Final concentrations were 1 μM ATP, 0.5 mM DTT, 1 mM MgCl2, 0.5 mg/mL BSA, and 10 μg/ml MAP2 in a buffer of 50 mM HEPES (pH 7.0). 0.5 mg/mL histone III-S served as the substrate; 100 μM AMP-PNP, an ATP analog, was used as a control inhibitor. Incubation time was 4 hours.

[2] = system: DD2; design: method as in F.J. Gamo et al., Nature 2010; conditions: downloaded from ChEMBL, ref F.J. Gamo et al., Nature 2010; cited from earlier work
[3] = target: T1, Plasmodium falciparum protein kinase 6 (PK6) (Plasmodium falciparum, UniProt Q8IDW1); experiment: biochemical; conditions: hits below 1 uM; read-out: PK6 IC50
T1 construct: 6-Histidine (N); made in house
T1 sequence (Q8IDW1 1-305): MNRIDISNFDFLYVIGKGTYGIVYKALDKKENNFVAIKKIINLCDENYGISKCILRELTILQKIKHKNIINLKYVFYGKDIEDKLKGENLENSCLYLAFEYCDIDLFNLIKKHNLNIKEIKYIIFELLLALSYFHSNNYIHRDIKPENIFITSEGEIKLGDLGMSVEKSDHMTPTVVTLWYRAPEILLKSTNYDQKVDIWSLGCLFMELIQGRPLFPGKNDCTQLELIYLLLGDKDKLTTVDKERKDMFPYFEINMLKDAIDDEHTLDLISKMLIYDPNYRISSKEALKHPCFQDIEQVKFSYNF

[4] = target: T2, Plasmodium falciparum calcium-dependent protein kinase 1 (CDPK1) (Plasmodium falciparum, UniProt P62344); experiment: biochemical; design: Kinase-Glo luminescence ATP depletion, Syntide-2 substrate, 10 uM ATP, CDPK1 or CDPK4
T2 construct: 6-Histidine (N); made in house
Procedure: Biochemical assays were performed in white 384-well plates (Nunc). Liquid transfers were done manually with 8-channel pipets. Compounds were initially tested in a single-point screen (final concentration 1 μM). […] (In the PK6 and PK7 screens, Z’ factors were suboptimal, so apparent hits were retested at 1 μM before proceeding with dose-response tests.) All incubations were at room temperature (~20°C). The catalytic activity of each kinase was considered proportional to ATP consumed, as determined from measurements of residual [ATP] with the luciferase-based reagent Kinase-Glo (Promega) following incubation. Luminescence (proportional to residual [ATP]) was measured on the plate readers FLx800 (BioTek Instruments, Winooski, VT, USA) and MicroBeta^2 (PerkinElmer, Waltham, MA, USA). Incubation times were chosen to ensure near-complete ATP depletion in the absence of inhibition, thus maximizing the difference in signal between inhibited and uninhibited wells. […] 40 μM Syntide-2 was used as a substrate; BKI-1 [14] was used as a control inhibitor, while reaction mixtures lacking Syntide-2 were included as an additional negative control. Incubation time was 90 minutes. Reactions were terminated by adding excess EGTA (5 mM), which sequesters Ca^2+ and halts calcium-dependent kinase activity.

[5] = target: T3, PKG (Plasmodium falciparum, UniProt Q8I719); experiment: PKG IC50 (supplementary data file); format: biochemical
Source text: (§1) Supplement pone.0149996.s003.xls, sheet "combined_1_sorted"

[6] = system: P. falciparum 3D7 cells; conditions: cited from earlier work
[7] = system: 3D7 PFLDH; design: method as in F.J. Gamo et al., Nature 2010; concentration or dose not given beside the values; conditions: downloaded from ChEMBL, ref F.J. Gamo et al., Nature 2010; cited from earlier work
[8] = system: HepG2 cells; conditions: cited from earlier work
[9] = target: T4, Plasmodium falciparum calcium-dependent protein kinase 4 (CDPK4) (Plasmodium falciparum, UniProt Q8IBS5); experiment: CDPK4 Kinase-Glo ATP-consumption screen and dose-response; format: biochemical; conditions: hits below 1 uM
T4 construct: 6-Histidine (N); made in house
T4 sequence (Q8IBS5 1-528): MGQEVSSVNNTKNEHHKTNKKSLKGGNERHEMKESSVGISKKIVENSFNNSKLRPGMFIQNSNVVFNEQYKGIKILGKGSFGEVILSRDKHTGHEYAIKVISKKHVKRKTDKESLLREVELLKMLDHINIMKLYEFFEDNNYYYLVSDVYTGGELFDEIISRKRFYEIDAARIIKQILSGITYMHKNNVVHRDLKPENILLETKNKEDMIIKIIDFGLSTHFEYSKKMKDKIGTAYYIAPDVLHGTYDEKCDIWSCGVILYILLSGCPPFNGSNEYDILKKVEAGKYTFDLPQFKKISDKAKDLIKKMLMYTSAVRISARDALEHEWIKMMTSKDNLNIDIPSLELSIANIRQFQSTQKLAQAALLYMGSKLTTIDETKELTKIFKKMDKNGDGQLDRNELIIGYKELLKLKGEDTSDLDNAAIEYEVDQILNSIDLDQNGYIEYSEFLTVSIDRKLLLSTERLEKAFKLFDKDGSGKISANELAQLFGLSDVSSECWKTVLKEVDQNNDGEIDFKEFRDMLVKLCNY
In short: (§2)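 ATP consumption by recombinant P. falciparum CDPK4 or CDPK1 measured as residual ATP by Kinase-Glo luminescence, with 40 μM Syntide-2 substrate and 90 min incubation stopped with 5 mM EGTA. Single-point screen at 1 μM final, followed by dose-response; no-substrate wells as negative control.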

[10] = target: T3, PKG; experiment: PKG IC50 (supplementary data file of hits); format: biochemical
Source text: as §1

[11] = target: T2, Plasmodium falciparum calcium-dependent protein kinase 1 (CDPK1); experiment: CDPK1 Kinase-Glo ATP-consumption screen and dose-response; format: biochemical; conditions: hits below 1 uM; read-out: CDPK1 IC50
In short: as §2

[12] = system: DD2; design: method as in F.J. Gamo et al., Nature 2010; conditions: P. falciparum Dd2; downloaded from ChEMBL ref F.J. Gamo et al., Nature 2010; cited from earlier work
[13] = system: 3D7 PFLDH; design: method as in F.J. Gamo et al., Nature 2010; conditions: downloaded from ChEMBL ref F.J. Gamo et al., Nature 2010; cited from earlier work
[14] = system: DD2; design: method as in downloaded from ChEMBL; conditions: ref downloaded from ChEMBL; cited from earlier work
[15] = system: 3D7 PFLDH; design: method as in downloaded from ChEMBL; conditions: ref downloaded from ChEMBL; cited from earlier work
[16] = target: Plasmodium falciparum protein kinase 7 (PK7) (Plasmodium falciparum, UniProt Q7YTF7); experiment: PK7 Kinase-Glo intrinsic ATPase (autophosphorylation) screen and dose-response; format: biochemical; conditions: hits below 1 uM
Procedure: Biochemical assays were performed in white 384-well plates (Nunc). Liquid transfers were done manually with 8-channel pipets. Compounds were initially tested in a single-point screen (final concentration 1 μM). […] (In the PK6 and PK7 screens, Z’ factors were suboptimal, so apparent hits were retested at 1 μM before proceeding with dose-response tests.) All incubations were at room temperature (~20°C). The catalytic activity of each kinase was considered proportional to ATP consumed, as determined from measurements of residual [ATP] with the luciferase-based reagent Kinase-Glo (Promega) following incubation. Luminescence (proportional to residual [ATP]) was measured on the plate readers FLx800 (BioTek Instruments, Winooski, VT, USA) and MicroBeta^2 (PerkinElmer, Waltham, MA, USA). Incubation times were chosen to ensure near-complete ATP depletion in the absence of inhibition, thus maximizing the difference in signal between inhibited and uninhibited wells.
Final concentrations were 1 μM ATP, 2 mM DTT, 20 mM MgCl2, 2 mM MnCl2, 0.01% BSA, and 6 μg/ml PK7 in a buffer of 20 mM Tris-HCl (pH 7.5). The enzyme itself was the only substrate present (since autophosphorylation occurs); 100 μM 1NA-PP1 [24] was used as a control inhibitor. Incubation time was 3 hours.

[17] = 3D7, downloaded from ChEMBL, ref F.J. Gamo et al., Nature 2010
[18] = P. falciparum 3D7, downloaded from ChEMBL ref F.J. Gamo et al., Nature 2010
[19] = HepG2 cells, downloaded from ChEMBL ref F.J. Gamo et al., Nature 2010
[20] = 3D7, ref downloaded from ChEMBL
[21] = HEPG2, ref downloaded from ChEMBL

T2 sequence (P62344 whole entry): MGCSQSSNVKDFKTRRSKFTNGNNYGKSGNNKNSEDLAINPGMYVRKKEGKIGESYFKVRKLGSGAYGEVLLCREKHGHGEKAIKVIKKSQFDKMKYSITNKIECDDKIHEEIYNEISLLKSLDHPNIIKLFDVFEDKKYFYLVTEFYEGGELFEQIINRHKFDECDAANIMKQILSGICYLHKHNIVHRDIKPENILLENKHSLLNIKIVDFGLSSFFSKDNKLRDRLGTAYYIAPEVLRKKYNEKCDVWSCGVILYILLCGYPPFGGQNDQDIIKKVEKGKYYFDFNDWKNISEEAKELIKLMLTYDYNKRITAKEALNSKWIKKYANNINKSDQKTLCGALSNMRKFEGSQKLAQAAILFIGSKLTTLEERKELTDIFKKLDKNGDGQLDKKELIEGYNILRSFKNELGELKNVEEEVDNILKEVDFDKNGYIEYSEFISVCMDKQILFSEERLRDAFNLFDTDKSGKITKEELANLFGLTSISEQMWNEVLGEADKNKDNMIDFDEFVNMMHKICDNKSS
T3 sequence (Q8I719 whole entry): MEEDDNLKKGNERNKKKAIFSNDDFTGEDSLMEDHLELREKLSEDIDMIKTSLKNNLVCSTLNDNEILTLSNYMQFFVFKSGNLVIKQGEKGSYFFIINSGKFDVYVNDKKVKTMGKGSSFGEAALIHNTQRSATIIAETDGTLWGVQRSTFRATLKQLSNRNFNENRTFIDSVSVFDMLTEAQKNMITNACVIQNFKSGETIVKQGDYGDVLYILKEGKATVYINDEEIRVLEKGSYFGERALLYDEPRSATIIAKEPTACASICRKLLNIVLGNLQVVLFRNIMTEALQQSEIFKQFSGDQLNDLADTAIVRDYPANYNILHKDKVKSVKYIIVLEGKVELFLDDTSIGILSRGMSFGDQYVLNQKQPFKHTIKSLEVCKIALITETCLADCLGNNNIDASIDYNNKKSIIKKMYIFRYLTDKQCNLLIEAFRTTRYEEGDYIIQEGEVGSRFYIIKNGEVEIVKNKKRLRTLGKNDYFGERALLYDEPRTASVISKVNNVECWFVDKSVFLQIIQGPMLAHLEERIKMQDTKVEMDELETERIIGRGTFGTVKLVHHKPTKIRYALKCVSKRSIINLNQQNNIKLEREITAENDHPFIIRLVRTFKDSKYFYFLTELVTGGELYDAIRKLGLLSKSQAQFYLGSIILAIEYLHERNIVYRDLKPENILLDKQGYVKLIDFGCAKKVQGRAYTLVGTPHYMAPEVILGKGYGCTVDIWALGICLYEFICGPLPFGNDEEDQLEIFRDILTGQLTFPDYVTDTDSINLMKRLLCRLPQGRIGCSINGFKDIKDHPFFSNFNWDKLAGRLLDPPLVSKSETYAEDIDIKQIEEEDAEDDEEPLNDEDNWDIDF
Sequence of Plasmodium falciparum protein kinase 7 (PK7) (Q7YTF7 entry or part of it): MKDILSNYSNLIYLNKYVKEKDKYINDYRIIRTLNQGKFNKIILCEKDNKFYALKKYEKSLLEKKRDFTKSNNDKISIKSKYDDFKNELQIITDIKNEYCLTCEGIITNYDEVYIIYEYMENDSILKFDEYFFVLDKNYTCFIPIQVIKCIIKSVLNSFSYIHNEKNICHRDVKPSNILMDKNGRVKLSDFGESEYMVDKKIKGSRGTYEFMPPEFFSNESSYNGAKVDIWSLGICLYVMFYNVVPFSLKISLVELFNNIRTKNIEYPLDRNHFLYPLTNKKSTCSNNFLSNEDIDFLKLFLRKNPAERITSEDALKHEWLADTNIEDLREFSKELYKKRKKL

IC50 [3] [nM] | IC50 [9] [nM] | IC50 [10] [nM] | IC50 [11] [nM] | SMILES | PCT_IHB_3D7 [6, 18] | pXC50_3D7 [6, 18] | PCT_INHB_DD2 [12] | PCT_INHIB_HEPG2 [8, 19] | PCT_INHIB_3D7_PFLDH [13] | also measured
 |  |  |  | Cc1ccc(-n2nc(C(C)(C)C)cc2NC(=O)Nc2ccc(OCCN3CCOCC3)c3ccccc23)cc1 [BIRB796] |  |  |  |  |  | Inhibition of MAPK2 (tested as possible control inhibitor) [1]: None gave consistent inhibition
 |  |  |  | O=C1Nc2ccc3ncsc3c2/C1=C/Nc1ccc(S(=O)(=O)Nc2ccccn2)cc1 [GW8510] |  |  |  |  |  | Inhibition of MAPK2 (tested as possible control inhibitor) [1]: None gave consistent inhibition
144 | 26 | 524 | 15 | CC(=O)Nc1cccc(Nc2nccc(-c3c(-c4cccc(NC(=O)c5c(F)cccc5F)c4)nn4ncccc34)n2)c1 [TCMDC-135548] | 96 | 6.736 | 51 | 83 | 5 | 
375 | 24 | > 10000 | 95 | CC(c1cccc(Nc2nccc(-c3c(-c4cccc(NC(=O)c5c(F)cccc5F)c4)nn4ncccc34)n2)c1)S(C)(=O)=O (stereo not drawn) [TCMDC-135696] | 98 | 7.341 | 98 | 79 | 4 | 
105 | 65 | > 10000 | 50 | CS(=O)(=O)Cc1ccc(Nc2nccc(-c3c(-c4cccc(C(=O)Nc5c(F)cccc5F)c4)nn4ccccc34)n2)cc1 [TCMDC-135742] | 96 | 6.274 | 92 | 85 | 0 | 
139 | 67 | > 10000 | 37 | CS(=O)(=O)Cc1ccc(Nc2nccc(-c3c(-c4cccc(NC(=O)C5CCCCC5)c4)nn4ncccc34)n2)cc1 [TCMDC-135812] | 98 | 6.697 | 99 | 31 | 0 | 
302 | 86 | 131 | 429 | CCN(CC)CCCOc1ccc(Nc2nccc(-c3c(-c4cccc(NC(=O)c5c(F)cccc5F)c4)nn4ccccc34)n2)cc1F [TCMDC-135920] | 100 | 6.39 | 99 | 86 | 0 | 
 |  |  |  | O=C(O)c1ccc(-c2cnc3ccc(NC4CCC(O)CC4)nn23)cc1 (stereo not drawn) [TCMDC-136692] |  |  |  |  |  | PCT_INHB_DD2 [14]: 90; PCT_INHIB_3D7_PFLDH [15]: 3; PCT_IHB_3D7 [6, 20]: 98; pXC50_3D7 [6, 20]: 6.002; IC50 [16]: 419 nM; PCT_INHIB_HEPG2 [8, 21]: 9
 |  |  |  | CC(C)(CN)c1nc(-c2ccc(Cl)c(O)c2)c(-c2ccncc2)[nH]1.Cl [TCMDC-140369] | 97 | 6.122 | 98 | 34 | 0 | IC50 [4]: 10.5 nM
 | 433 | 42 | 13 | CC(C)(CN)c1cc(-c2ccc(Cl)c(O)c2)c(-c2ccncc2)o1.Cl [TCMDC-141334] | 92 | 5.944 | 97 | 44 | 7 | 
 |  |  |  | NC1=NC(=O)/C(=C2\CCNC(=O)c3[nH]c(Br)cc32)N1 [hymenialdisine] |  |  |  |  |  | Inhibition of MAPK2 (tested as possible control inhibitor) [1]: None gave consistent inhibition

SMILES | IC50 [3] [nM] | IC50 [9] [nM] | IC50 [10] [nM] | IC50 [11] [nM] | PCT_IHB_3D7 [6, 18] | pXC50_3D7 [6, 18] | PCT_INHB_DD2 [12] | PCT_INHIB_HEPG2 [8, 19] | PCT_INHIB_3D7_PFLDH [13] | also measured
Cc1cc(Nc2ncc(C#N)c(Nc3ccccc3C(N)=O)n2)ccc1N1CCN(C)CC1.Cl [TCMDC-134115] | 54 | 89 |  |  |  |  |  |  |  | PCT_INHB_DD2 [2]: 94%; IC50 [4]: 10.4 nM; IC50 [5]: 63 nM; PCT_IHB_3D7 [6, 17]: 94%; pXC50_3D7 [6, 17]: 8.064; PCT_INHIB_3D7_PFLDH [7]: 0%; PCT_INHIB_HEPG2 ([8]; HepG2, downloaded from ChEMBL, ref F.J. Gamo et al., Nature 2010): 99%
OC1CCC(Nc2ccc3ncc(-c4ccc(Cl)cc4)n3n2)CC1 (stereo not drawn) [TCMDC-136693] |  |  |  | 503 |  |  |  |  |  | PCT_INHB_DD2 [14]: 98; PCT_INHIB_3D7_PFLDH [15]: 0; PCT_IHB_3D7 [6, 20]: 97; pXC50_3D7 [6, 20]: 6.084; IC50 [16]: 438 nM; PCT_INHIB_HEPG2 [8, 21]: 57
